US20070020194A1, “Nasally administered appetite suppressant” (priority 2005, published 2007)
“And” between values parts separate entries of the source, which are not always exact repeats. Equal entries are not always repeated.

Legend:
[1] = cited from earlier work
[2] = Food intake study, intranasal lidocaine vs saline before a test meal; format: in vivo, human
Protocol: Three males and one female between 23 and 60 years of age with BMI's less than 25 kg/m2 participated in a study of food intake. The subjects presented to the food intake laboratory at noon after an overnight fast except for water from 9 pm the prior night on two occasions a week apart. They had 10 mg (0.5 cc) of lidocaine or 0.5 cc normal saline administered in each nostril 20 minutes before presentation of a meal consisting of fried chicken pieces and water. They were allowed to eat and drink as much or as little as they wished over a 20-minute period, and there were more chicken pieces than they could reasonably be expected to eat at one sitting. The order of the lidocaine and saline was balanced and the study was performed in a double-blind fashion.
The four subjects consumed 15%, 11%, 27% and 33% less on the lidocaine week compared to the placebo week. […] Sibutramine, an obesity drug, gives an 8% weight loss at 6 months and causes a 12% decrease in food intake.

[3] = 70 kg adult; cited from earlier work
[4] = applied topically; cited from earlier work

| Compound | weight loss ([1]; at 6 months) [%] | decrease in food intake ([1]; in vivo) [%] | less food consumed on the lidocaine week compared to the placebo week (individual subjects) ([2]; 10 mg (0.5 cc) lidocaine in each nostril 20 minutes before meal, 20-minute meal of fried chicken pieces, four subjects, BMI less than 25 kg/m2) | overall reduction in food intake ([2]; 10 mg lidocaine per nostril vs saline, four subjects, p<0.02) [%+10.2%] | weight loss that might result if the food intake reduction is sustained ([2]; extrapolated from pilot study by comparison with sibutramine) [%] | maximum safe dosage for topical anesthetic [3] [mg] | duration of anesthesia [4] [min] | time to peak anesthesia [4] [min] |
| --- | --- | --- | --- | --- | --- | --- | --- | --- |
| CC(C)CC(N(C)C)C1(c2ccc(Cl)cc2)CCC1 (centres unmarked) [Sibutramine] | 8 | 12 | – | – | – | – | – | – |
| CCN(CC)CC(=O)Nc1c(C)cccc1C [lidocaine] | – | – | 15% and 11% and 27% and 33% | 21.5 | ≤ 14 | 500 | 30 to 45 | 2 to 5 |
